Assay results: US20070004760A1, “Fungicide mixtures for the control of rice pathogens” (priority 2003, published 2007)
Several values for one entry are separate records, joined by “and”; a condition that tells them apart may be missing. Identical values can stand only once. Like-named read-outs stand apart in the source and are kept apart here.

Experiments:
Pyricularia oryzae = assay type: in vivo; details: individual active compound, rice 'Tai-Nong 67', protective, 6 days, untreated control 60% infection
Cochliobolus miyabeanus = assay: Activity against brown spot of rice caused by Cochliobolus miyabeanus, protective application; assay type: in vivo

For `CC1CCN(c2c(-c3c(F)cccc3Cl)c(Cl)nc3ncnn23)CC1` [Comparison A], the “Efficacy in % of the untreated control” value (Pyricularia oryzae; 16 ppm in the spray liquor) was 59%.

In the case of `C[C@H](Nc1c(-c2c(F)cc(F)cc2F)c(Cl)nc2ncnn12)C(F)(F)F` [Comparison B], the “Efficacy in % of the untreated control” value (Pyricularia oryzae; 16 ppm in the spray liquor) is reported as 67%.

`CC1CCN(c2c(-c3c(F)cc(F)cc3F)c(Cl)nc3ncnn23)CC1` [I, 5-chloro-7-(4-methylpiperidin-1-yl)-6-(2,4,6-trifluorophenyl)-[1,2,4]triazolo[1,5-a]pyrimidine] was tested, and the “Efficacy in % of the untreated control” value (Pyricularia oryzae; 16 ppm in the spray liquor) was 67%, the “Efficacy in % of the untreated control” value (Cochliobolus miyabeanus; individual active compound, 4 ppm in the spray liquor, rice 'Tai-Nong 67', protective, six days, untreated control 90% infection) was 33% and the “Efficacy in % of the untreated control” value (Cochliobolus miyabeanus; individual active compound, 16 ppm in the spray liquor, rice 'Tai-Nong 67', protective, six days, untreated control 90% infection) was 33% and 56%.

In the case of `CO/N=C(/C(=O)OC)c1ccccc1CO/N=C(\C)c1cccc(C(F)(F)F)c1` [II (trifloxystrobin), methyl (E)-methoxyimino-{(E)-α-[1-(α,α,α-trifluoro-m-tolyl)ethylideneaminooxy]o-tolyl}acetate], the “Efficacy in % of the untreated control” value (Pyricularia oryzae; 4 ppm in the spray liquor) is reported as 2%, the “Efficacy in % of the untreated control” value (Pyricularia oryzae; 16 ppm in the spray liquor) is reported as 2% and the “Efficacy in % of the untreated control” value (Cochliobolus miyabeanus; in vivo) is reported as 0%.
